Measurements reported in publication PMC10468942, “A Fluorescent Probe as a Lead Compound for a Selective α-Synuclein PET Tracer: Development of a Library of 2-Styrylbenzothiazoles and Biological Evaluation of [^18F]PFSB and [^18F]MFSB” (ACS Omega, 2023).
Where “and” joins values, the source holds several entries; their conditions need not be identical. Equal entries are not always repeated.

What was measured:
[1] = target: T1, αSYN fibrils (Homo sapiens, UniProt P37840); test: [^3H]PiB competition binding assay on αSYN fibrils
T1 construct: cloning of the DNA construct encoding full-length αSYN into the pET-22b vector; made in house; host or cells: Escherichia coli BL21
Procedure: Following the cloning of the DNA construct encoding full-length αSYN into the pET-22b vector and its transformation into BL21 cells, the expression of human αSYN from a prokaryotic host was induced overnight in Escherichia coli at 20 °C with 0.5 mM IPTG. The cells were harvested by centrifugation, resuspended in 20 mM Tris-HCl pH 7.6, 25 mM NaCl and 1× complete protease inhibitor (Roche, Basel, Switzerland), and lysed by sonication. […] Anion exchange chromatography (HiTrap Q, GE Healthcare, Chicago, Illinois) was used to trap the produced αSYN, which was eluted with NaCl 0.1 M over 20 column volumes. Fractions containing αSYN were concentrated and further purified through a Superdex 75 SEC column equilibrated with PBS. […] A 4 mg/mL solution of αSYN in 20 mM K3PO4 pH 9.1 was placed in an orbital shaker at 37 °C, 1000 rpm for 5 days to prepare P91s. The assemblies were either sonicated with cycles of 20 s on and 10 s off at 50% amplitude (Q800R3, Qsonica) for a total of 10 min or directly aliquoted in volumes of 10 μL each stored at −80 °C until use. […] The final products were aliquoted, frozen on dry ice, and stored at −80 °C until use.
(§1) Concentrations of αSYN and Aβ1-42 fibrils were as described above.
(§2) Plates were incubated on a shaker (MaxQ 6000, Thermo Fisher Scientific, Inc., Marietta, OH) at 50 rpm for 2 h at 37 °C, covered by removable sealing tapes (PerkinElmer, Waltham, MA). Vacuum filtration and read-out were performed as previously reported.[17] […] Data points were fitted using nonlinear regression analysis in GraphPad Prism (GraphPad Software, Inc., Version 8.4.0, La Jolla).

[2] = target: T2, Aβ1-42 fibrils (Homo sapiens, UniProt P05067); test: [^3H]PiB competition binding assay on Aβ fibrils; details: for competition with [^3H]PiB / binding to Aβ fibrils (in words): Aβ1–42 fibrils
T2 construct: Synthetic lyophilized human Aβ1-42 peptide; purchased EMC Microcollections, Tuebingen, Germany; host or cells: synthetic peptide
T2 sequence (P05067 672-713 limits assumed): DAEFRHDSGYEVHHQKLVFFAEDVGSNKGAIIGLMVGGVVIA
Procedure: Following the cloning of the DNA construct encoding full-length αSYN into the pET-22b vector and its transformation into BL21 cells, the expression of human αSYN from a prokaryotic host was induced overnight in Escherichia coli at 20 °C with 0.5 mM IPTG. The cells were harvested by centrifugation, resuspended in 20 mM Tris-HCl pH 7.6, 25 mM NaCl and 1× complete protease inhibitor (Roche, Basel, Switzerland), and lysed by sonication. […] Anion exchange chromatography (HiTrap Q, GE Healthcare, Chicago, Illinois) was used to trap the produced αSYN, which was eluted with NaCl 0.1 M over 20 column volumes. Fractions containing αSYN were concentrated and further purified through a Superdex 75 SEC column equilibrated with PBS. […] A 4 mg/mL solution of αSYN in 20 mM K3PO4 pH 9.1 was placed in an orbital shaker at 37 °C, 1000 rpm for 5 days to prepare P91s. The assemblies were either sonicated with cycles of 20 s on and 10 s off at 50% amplitude (Q800R3, Qsonica) for a total of 10 min or directly aliquoted in volumes of 10 μL each stored at −80 °C until use. The method for Aβ1-42 fibrils generation was adapted from Bagchi et al. and described in Kuebler et al.[17],[27] […] Aggregation was induced by incubation in an Eppendorf Thermomixer at 37 °C with shaking at 800 rpm for 72 h. The resulting fibrils were sonicated for 3 min in a water bath (Elmasonic S 60 H, Elma Schmidbauer GmbH, Singen, Germany). The final products were aliquoted, frozen on dry ice, and stored at −80 °C until use.
as §1, §2

[3] = target: T1, αSYN fibrils; test: [^3H]MODAG-001 competition binding assay on αSYN fibrils; details: for Ki: n = 2, single determinations
Procedure: Following the cloning of the DNA construct encoding full-length αSYN into the pET-22b vector and its transformation into BL21 cells, the expression of human αSYN from a prokaryotic host was induced overnight in Escherichia coli at 20 °C with 0.5 mM IPTG. The cells were harvested by centrifugation, resuspended in 20 mM Tris-HCl pH 7.6, 25 mM NaCl and 1× complete protease inhibitor (Roche, Basel, Switzerland), and lysed by sonication. Additionally, they were boiled for 15 min and centrifuged at 12 000g for 30 min. Anion exchange chromatography (HiTrap Q, GE Healthcare, Chicago, Illinois) was used to trap the produced αSYN, which was eluted with NaCl 0.1 M over 20 column volumes. Fractions containing αSYN were concentrated and further purified through a Superdex 75 SEC column equilibrated with PBS. Additional purification was conducted via a high-capacity endotoxin removal spin column (Pierce, Waltham, Massachusetts), affording an endotoxin level below 1.0 EU/mg. The monomeric state and monodispersity of pure αSYN were confirmed by dynamic light scattering and fibrillation was performed according to the protocol from Makky et al.[26] A 4 mg/mL solution of αSYN in 20 mM K3PO4 pH 9.1 was placed in an orbital shaker at 37 °C, 1000 rpm for 5 days to prepare P91s. The assemblies were either sonicated with cycles of 20 s on and 10 s off at 50% amplitude (Q800R3, Qsonica) for a total of 10 min or directly aliquoted in volumes of 10 μL each stored at −80 °C until use. The method for Aβ1-42 fibrils generation was adapted from Bagchi et al. and described in Kuebler et al.[17],[27] […]
Plates were incubated on a shaker (MaxQ 6000, Thermo Fisher Scientific, Inc., Marietta, OH) at 50 rpm for 2 h at 37 °C, covered by removable sealing tapes (PerkinElmer, Waltham, MA). Vacuum filtration and read-out were performed as previously reported.[17] […]

[4] = system: αSYN pathology in human brain slices (MSA, PD, AD, control); test: In vitro autoradiography on human brain slices; type: binding; details: 10 nM tracer
Procedure: Post-mortem human brain slices (10 μm thickness) were obtained from the subject cases and were analyzed by the Neurobiobank München (NBM, Munich, Germany), where tissues were collected on the basis of written informed consent according to the guidelines of the ethics committee of the Ludwig Maximilians University of Munich, Germany (# 345-13). The use of brain tissue samples in this study was approved by the ethics committee of the Faculty of Medicine at the University of Tuebingen (Ethics approval number: 813/2018BO2). Table S4 (Supporting Information) summarizes the information of the subjects from which samples were obtained and used in the experiment.
For autoradiography, frozen brain slices were thawed for 1 h before preincubation in bovine serum albumin (BSA) buffer for 25 min at room temperature. To determine total binding (TB), brain slices were incubated with the tracer (10 nM [^18F]PFSB, 10 nM [^18F]MFSB). Incubation of consecutive slices with the corresponding nonradioactive compounds (10 μM PFSB, 10 μM MFSB) was performed to determine nonspecific binding (NSB). The nonradioactive compounds were prepared by dissolving in DMSO to 10 mM, which yielded a DMSO concentration of ≤0.1% in the final solution. Incubation was carried out for 1 hour at room temperature with subsequent washing in cold BSA buffer (3 × 10 min) followed by three dippings in cold deionized water. After drying under an IR lamp, brain slices were exposed to a storage phosphor screen (Molecular Dynamics, Caesarea, Israel) for 18 h, which was then scanned in a phosphor imager (STORM 840, Molecular Dynamics, Sunnyvale, CA).
Quantitative data analysis was performed by drawing four regions of interest (ROIs) in relevant areas of the slice and one ROI next to it for background subtraction (Figures S7 and S8; ImageJ 1.8.0_172, National Institute of Health, Bethesda, MD).[28] Specific binding (SB) is obtained by subtracting NSB from TB. The SB disease/SB control ratio was calculated by dividing by the SB in diseased tissues with the respective SB in control tissues.

[5] = Ki, αSYN [^3H]PiB competition, mean Ki ± SEM, n = 3, or single determinations
[6] = nonmethylated compounds, Table 1, two values in a cell = single determinations, a: mean Ki ± SEM of three data points, b: single data point, read-out: Ki

| Compound | Ki [1, 5] [µM] | competition with [^3H]PiB / binding to Aβ fibrils (in words) [2] | Ki [1, 6] [µM] | further results |
| --- | --- | --- | --- | --- |
| Fc1ccc2nc(C=CC=Cc3ccc(N4CCCC4)cc3)sc2c1 [compound 44, 6-Fluoro-2-(4-(4-(pyrrolidin-1-yl)phenyl)buta-1,3-dien-1-yl)benzo[d]thiazole] | 0.085 ± 0.041 | remained low |  |  |
| C(C=Cc1nc2ccccc2s1)=Cc1ccc(N2CCCCC2)cc1 [14a, 2-(4-(4-(Piperidin-1-yl)phenyl)buta-1,3-dien-1-yl)benzo[d]thiazole] |  | None of the tested compounds appreciably competed against [^3H]PiB | 0.0819 ± 0.0156 |  |
| Fc1ccc2nc(C=Cc3ccc(N4CCOCC4)cc3)sc2c1 [compound 45, 4-(4-(2-(6-Fluorobenzo[d]thiazol-2-yl)vinyl)phenyl)morpholine] | 0.0103 ± 0.0047 |  |  | factor of affinity improvement compared to PFSB ([1]; [^3H]PiB competition, Ki-MFSB vs Ki-PFSB): 2.5; αSYN/Aβ selectivity (in words) ([2]; [^3H]PiB competition on αSYN and Aβ fibrils): remained unchanged; fold lower Ki than PFSB ([3]; [^3H]MODAG-001 competition): 4.6 fold; Ki [3]: 0.0203 µM and 0.0412 µM |
| Fc1ccc2nc(C=Cc3ccc(N4CCCCC4)cc3)sc2c1 [9a, 6-Fluoro-2-(4-(piperidin-1-yl)styryl)benzo[d]thiazole] |  | None of the tested compounds appreciably competed against [^3H]PiB | 0.0254 ± 0.0023 | Ki [3]: 0.125 µM and 0.159 µM |
| Fc1ccc2nc(C=CC=Cc3ccc(N4CCCCC4)cc3)sc2c1 [compound 43, 6-Fluoro-2-(4-(4-(piperidin-1-yl)phenyl)buta-1,3-dien-1-yl)benzo[d]thiazole] | 0.213 ± 0.121 | remained low |  | fold reduction of affinity compared to 14a ([1]; [^3H]PiB competition): ~3 fold |
| C(=Cc1nc2ccccc2s1)c1ccc(N2CCCC2)cc1 [17a, 2-(4-(Pyrrolidin-1-yl)styryl)benzo[d]thiazole] |  | None of the tested compounds appreciably competed against [^3H]PiB | 0.0734 ± 0.019 |  |
| C(=Cc1nc2ccccc2s1)c1ccc(N2CCOCC2)cc1 [15a, 4-(4-(2-(Benzo[d]thiazol-2-yl)vinyl)phenyl)morpholine] |  | None of the tested compounds appreciably competed against [^3H]PiB | 0.092 ± 0.0303 |  |
| [18F]c1ccc2nc(/C=C/c3ccc(N4CCCCC4)cc3)sc2c1 [[^18F]PFSB] |  |  |  | AD/frontal cortex SB ratio ([4]; AD sample vs frontal cortex control): 1.06; specific binding signal intensity ratio MSA / control of the same brain area ([4]; MSA patient slices vs control, n = 1): 3.7 and 4.2 |
